Measurements published in PubChem BioAssay AID1963985 (Molecular Pharmacology Branch, DTP, NCI, 2024).

Tested on: 252836-082-R-J2-PDC tumor spheroids, viability
Experiment: Anticancer human tumor 252836-082-R-J2-PDC patient-derived head and neck squamous cell carcinoma cell line growth inhibition [PI3K]
Conditions: spheroids with HUVEC and MSC; for IC50: curve of first compound; for viability, T/C: stronger effect = lower value
Method in brief: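 Combination activity was assessed by viability in multicellular tumor spheroids carrying HUVEC and MSC components. Agents were tested with PI3K inhibitors from a Cmax-based top dose (or 10 microM) downward in half-log increments.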
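Also: spheroids exposed to agents for seven days before readout.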
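For viability, T/C in this document: percent of vehicle DMSO control viability so 100% = untreated growth.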

`Cn1cnc2c(F)c(Nc3ccc(Br)cc3Cl)c(C(=O)NOCCO)cc21` + COc1c(OCCCN2CCOCC2)ccc2c3n(c(=NC(=O)c4cnc(N)nc4)nc12)CCN3 gave an IC50 (second compound 0.00316 µM) of 2050 nM, an IC50 (second compound 0.01 µM) of 1070 nM and an IC50 (second compound 0.0316 µM) of 78.4 nM. For the same compound, the IC50 (second compound 0.1 µM) was < 9.49 nM, the IC50 (second compound 0.316 µM) was < 9.49 nM and the IC50 (second compound 1 µM) was < 9.49 nM. It also gave a viability, T/C (second compound 0.00316 µM, first compound 0.00949 µM) of 91.6%, a viability, T/C (second compound 0.00316 µM, first compound 0.03 µM) of 71.5% and a viability, T/C (second compound 0.00316 µM, first compound 0.0949 µM) of 82.4%. For the same compound, the viability, T/C (second compound 0.00316 µM, first compound 0.3 µM) was 80.4%, the viability, T/C (second compound 0.00316 µM, first compound 0.949 µM) was 75.3% and the viability, T/C (second compound 0.00316 µM, first compound 3 µM) was 37.5%. The viability, T/C (second compound 0.01 µM, first compound 0.00949 µM) was 73.5%, the viability, T/C (second compound 0.01 µM, first compound 0.03 µM) was 70.3% and the viability, T/C (second compound 0.01 µM, first compound 0.0949 µM) was 76.7%. For the same compound, the viability, T/C (second compound 0.01 µM, first compound 0.3 µM) was 65.2%, the viability, T/C (second compound 0.01 µM, first compound 0.949 µM) was 52.1% and the viability, T/C (second compound 0.01 µM, first compound 3 µM) was 35.5%. It also gave a viability, T/C (second compound 0.0316 µM, first compound 0.00949 µM) of 59.6%, a viability, T/C (second compound 0.0316 µM, first compound 0.03 µM) of 48.8% and a viability, T/C (second compound 0.0316 µM, first compound 0.0949 µM) of 49%. For the same compound, the viability, T/C (second compound 0.0316 µM, first compound 0.3 µM) was 46.2%, the viability, T/C (second compound 0.0316 µM, first compound 0.949 µM) was 34.1% and the viability, T/C (second compound 0.0316 µM, first compound 3 µM) was 25.1%. It also gave a viability, T/C (second compound 0.1 µM, first compound 0.00949 µM) of 31.6%, a viability, T/C (second compound 0.1 µM, first compound 0.03 µM) of 33.3% and a viability, T/C (second compound 0.1 µM, first compound 0.0949 µM) of 33.1%. The viability, T/C (second compound 0.1 µM, first compound 0.3 µM) was 29.5%, the viability, T/C (second compound 0.1 µM, first compound 0.949 µM) was 18% and the viability, T/C (second compound 0.1 µM, first compound 3 µM) was 7.77%. For the same compound, the viability, T/C (second compound 0.316 µM, first compound 0.00949 µM) was 14.8%, the viability, T/C (second compound 0.316 µM, first compound 0.03 µM) was 12.2% and the viability, T/C (second compound 0.316 µM, first compound 0.0949 µM) was 9.2%. The viability, T/C (second compound 0.316 µM, first compound 0.3 µM) was 7.79%, the viability, T/C (second compound 0.316 µM, first compound 0.949 µM) was 3.35% and the viability, T/C (second compound 0.316 µM, first compound 3 µM) was 0.38%. The viability, T/C (second compound 1 µM, first compound 0.00949 µM) was 2.53%, the viability, T/C (second compound 1 µM, first compound 0.03 µM) was 2.17% and the viability, T/C (second compound 1 µM, first compound 0.0949 µM) was 2.32%. It also gave a viability, T/C (second compound 1 µM, first compound 0.3 µM) of 0.64%, a viability, T/C (second compound 1 µM, first compound 0.949 µM) of 3.69% and a viability, T/C (second compound 1 µM, first compound 3 µM) of 0.18%.

`Cn1ncc(Cl)c1-c1cc(C(=O)NC(CN)Cc2cccc(F)c2)sc1Cl` (centres undefined) + Cc1nc(NC(=O)N2CCCC2C(N)=O)sc1-c1ccnc(C(C)(C)C(F)(F)F)c1 gave an IC50 (second compound 0.0316 µM) of 391 nM, an IC50 (second compound 0.1 µM) of 657 nM and an IC50 (second compound 0.316 µM) of 362 nM. The IC50 (second compound 1 µM) was 52.2 nM, the IC50 (second compound 3.16 µM) was < 31.6 nM and the IC50 (second compound 10 µM) was < 31.6 nM. It also gave a viability, T/C (second compound 0.0316 µM, first compound 0.0316 µM) of 82.8%, a viability, T/C (second compound 0.0316 µM, first compound 0.1 µM) of 65% and a viability, T/C (second compound 0.0316 µM, first compound 0.316 µM) of 57.8%. It also gave a viability, T/C (second compound 0.0316 µM, first compound 1 µM) of 33.6%, a viability, T/C (second compound 0.0316 µM, first compound 3.16 µM) of 28.4% and a viability, T/C (second compound 0.0316 µM, first compound 10 µM) of 17.6%. It also gave a viability, T/C (second compound 0.1 µM, first compound 0.0316 µM) of 83.9%, a viability, T/C (second compound 0.1 µM, first compound 0.1 µM) of 64% and a viability, T/C (second compound 0.1 µM, first compound 0.316 µM) of 67.5%. For the same compound, the viability, T/C (second compound 0.1 µM, first compound 1 µM) was 41.8%, the viability, T/C (second compound 0.1 µM, first compound 3.16 µM) was 27.4% and the viability, T/C (second compound 0.1 µM, first compound 10 µM) was 12.2%. For the same compound, the viability, T/C (second compound 0.316 µM, first compound 0.0316 µM) was 67.4%, the viability, T/C (second compound 0.316 µM, first compound 0.1 µM) was 61.3% and the viability, T/C (second compound 0.316 µM, first compound 0.316 µM) was 52.4%. For the same compound, the viability, T/C (second compound 0.316 µM, first compound 1 µM) was 36.9%, the viability, T/C (second compound 0.316 µM, first compound 3.16 µM) was 29.5% and the viability, T/C (second compound 0.316 µM, first compound 10 µM) was 11.1%. For the same compound, the viability, T/C (second compound 1 µM, first compound 0.0316 µM) was 52%, the viability, T/C (second compound 1 µM, first compound 0.1 µM) was 47.4% and the viability, T/C (second compound 1 µM, first compound 0.316 µM) was 44.6%. For the same compound, the viability, T/C (second compound 1 µM, first compound 1 µM) was 35.8%, the viability, T/C (second compound 1 µM, first compound 3.16 µM) was 28.6% and the viability, T/C (second compound 1 µM, first compound 10 µM) was 12%. It also gave a viability, T/C (second compound 3.16 µM, first compound 0.0316 µM) of 44.5%, a viability, T/C (second compound 3.16 µM, first compound 0.1 µM) of 42.1% and a viability, T/C (second compound 3.16 µM, first compound 0.316 µM) of 43.6%. For the same compound, the viability, T/C (second compound 3.16 µM, first compound 1 µM) was 30.7%, the viability, T/C (second compound 3.16 µM, first compound 3.16 µM) was 25.4% and the viability, T/C (second compound 3.16 µM, first compound 10 µM) was 9.67%. It also gave a viability, T/C (second compound 10 µM, first compound 0.0316 µM) of 40.4%, a viability, T/C (second compound 10 µM, first compound 0.1 µM) of 36.1% and a viability, T/C (second compound 10 µM, first compound 0.316 µM) of 34.1%. The viability, T/C (second compound 10 µM, first compound 1 µM) was 26.1%, the viability, T/C (second compound 10 µM, first compound 3.16 µM) was 20.9% and the viability, T/C (second compound 10 µM, first compound 10 µM) was 7.53%.
